# Patent US20210379010A1, “COMPOSITIONS COMPRISING CANNABINOIDS FOR USE IN THE TREATMENT OF BIOFILM AND CONDITIONS ASSOCIATED WITH MICROBIAL, FUNGAL, BACTERIAL INFECTIONS” (Yissum Research Development Company of The Hebrew …, priority 2018, published 2021)
# Key:
# C. albicans biofilm [1] = assay: MTT assay of C. albicans biofilm; type: cell-based
# Description: To investigate the effect of the agents on preformed biofilms, biofilms were allowed to mature in for 24 h at 37° C. in a 6-well plate. The biofilms were washed twice with PBS. The active agents were then applied. The plates were further incubated for 24 h at 37° C. The amounts of biofilms, were determined quantitatively using a standard MTT reduction assay as described previously. Briefly, biofilms were overlaid with […] of 3-(4,5-dimethyl-2-thiazolyl)-2,5-diphenyl-2H-tetrazolium bromide (MTT) and incubated for 2 h at 37° C. Under these conditions, the lightly yellowish MTT was reduced to a blue tetrazolium salt accumulated within the metabolic active biofilms. The stain was then dissolved in DMSO and the absorbance value was measured at 570 nm. The accumulation of tetrazolium salt by the reduction of MTT is proportional to the number of viable cells growing in biofilm. Prior to dissolving in DMSO, biofilms were photographed and visualized. Assay was performed in triplicate.
# S.aureus MRSA 33592 = assay: Growth of MRSA 33592, cannabinoid alone and combined with antibiotic (MIC/FIC/FICI); type: cell-based; settings: MRSA 33592 growth; for MIC AMP: ampicillin alone; for MIC METH: methicillin alone
# [2] = system: S.aureus MRSA 33592 biofilm; assay: Biofilm formation of MRSA 33592, cannabinoid alone and combined with antibiotic (MBIC/FBIC/FBICI); type: cell-based; settings: for MBIC AMP: ampicillin alone; for MBIC METH: methicillin alone
# S.aureus MRSA 43300 = assay: Growth of MRSA 43300, cannabinoid alone and combined with antibiotic (MIC/FIC/FICI); type: cell-based; settings: MRSA 43300 growth; for MIC AMP: ampicillin alone; for MIC METH: methicillin alone
# [3] = system: S.aureus MRSA 43300 biofilm; assay: Biofilm formation of MRSA 43300, cannabinoid alone and combined with antibiotic (MBIC/FBIC/FBICI); type: cell-based; settings: for MBIC AMP: ampicillin alone; for MBIC METH: methicillin alone
# [4] = system: fluconazole resistant C. albicans strains; type: cell-based; settings: each agent alone or in combination; data not shown
# C. albicans biofilm [5] = assay: C. albicans biofilm formation inhibition; type: cell-based
# C. albicans = C. albicans growth (MIC); type: cell-based; settings: single C. albicans growth; highest tested dose 64 μg/ml
# C. albicans biofilm [6] = assay: Microscopic observation of fungal morphology in biofilm; type: cell-based
# C. albicans biofilm [7] = assay: Flow cytometry analysis of viable cells in fungal biofilm; type: cell-based; settings: for granularity: control 136 AU; for cell size: control 260 AU
# [8] = system: mixed C. albicans-S. mutans biofilm; assay: Co-species C. albicans-S. mutans biofilm formation inhibition; type: cell-based
# [9] = system: mixed S. mutans-C. albicans; assay: Growth of C. albicans-S. mutans co-culture; type: cell-based; settings: all tested doses
# S. mutans = S. mutans growth (MIC); type: cell-based; settings: single S. mutans growth
# S. mutans biofilm = S. mutans biofilm formation inhibition; type: cell-based; settings: for MBIC50: S. mutans biofilm formation
# S. aureus MRSA 24433 = assay: Growth of MRSA 24433, cannabinoid alone and combined with antibiotic (MIC/FIC/FICI); type: cell-based; settings: for FIC METH / MIC METH: MRSA 24433 growth; for MIC METH: methicillin alone
# [10] = system: S. aureus MRSA 24433 biofilm; assay: Biofilm formation of MRSA 24433, cannabinoid alone and combined with antibiotic (MBIC/FBIC/FBICI); type: cell-based; settings: for MBIC METH: methicillin alone
# P. aeruginosa biofilm = assay: CLSM of treated P. aeruginosa biofilm
compound,measurement,setting,value
"CCCCC/C=C\C/C=C\C/C=C\C/C=C\CCCC(=O)OC(CO)CO [2-AG, 2-arachidonoyl glycerol]",C. albicans biofilm formation (MTT assay),C. albicans biofilm [1],dose-dependent inhibition
"CC1(C)S[C@@H]2[C@H](NC(=O)[C@H](N)c3ccccc3)C(=O)N2[C@H]1C(=O)O [AMP, ampicillin, reference compound]",FIC AMP,"S.aureus MRSA 33592; MIC of ampicillin in combination with AEA, Table 8A",8
same,FIC AMP,"S.aureus MRSA 33592; MIC of ampicillin in combination with ARAS, Table 5A",64
same,MIC AMP,S.aureus MRSA 33592; Table 5A,128 µg/mL
same,MIC AMP,S.aureus MRSA 33592; Table 8A,128 µg/mL
same,FBIC AMP,"[2]; MBIC of ampicillin in combination with AEA, Table 8A",8
same,FBIC AMP,"[2]; MBIC of ampicillin in combination with ARAS, Table 5A",32
same,MBIC AMP,[2]; Table 5A,128
same,MBIC AMP,[2]; Table 8A,128
same,FIC AMP,"S.aureus MRSA 43300; MIC of ampicillin in combination with AEA, Table 8B",8
same,FIC AMP,"S.aureus MRSA 43300; MIC of ampicillin in combination with ARAS, Table 5B",16
same,MIC AMP,S.aureus MRSA 43300; Table 5B,256 µg/mL
same,MIC AMP,S.aureus MRSA 43300; Table 8B,> 128 µg/mL
same,FBIC AMP,"[3]; MBIC of ampicillin in combination with AEA, Table 8B",8
same,FBIC AMP,"[3]; MBIC of ampicillin in combination with ARAS, Table 5B",64
same,MBIC AMP,[3]; Table 5B,256
same,MBIC AMP,[3]; Table 8B,>128
"OC(Cn1cncn1)(Cn1cncn1)c1ccc(F)cc1F [FLU, fluconazole, reference compound]",growth of fluconazole resistant fungal strains,[4],not affected
"CCCCCCC(C)(C)c1cc(O)c2c(c1)OC(C)(C)[C@@H]1CC=C(CO)C[C@@H]21 [HU210, 1,1-Dimethylheptyl-11-hydroxy-tetrahydrocannabinol]",biofilm formation at highest tested dose,C. albicans biofilm [5]; HU210 64 μg/ml,Almost no biofilm formed
same,"MBIC50 (minimal biofilm inhibitory concentration 50, 50% of biofilm inhibition)",C. albicans biofilm [5]; single C. albicans biofilm formation,2 µg/mL
same,"MIC, fungal growth",C. albicans,not detected at tested doses
same,fungal morphology in biofilm,C. albicans biofilm [6]; 8 μg/ml,influenced fungal morphology
same,yeast-to-hyphae transition,C. albicans biofilm [6]; 64 μg/ml,appearance of mainly yeast form of C. albicans
same,density of fungal mycelium,C. albicans biofilm [6]; increasing doses up to 64 μg/ml,decreased dose-dependently
same,granularity,C. albicans biofilm [7]; 8 μg/ml,50 AU
same,cell size,C. albicans biofilm [7]; 8 μg/ml,110 AU
same,viable C. albicans cells in biofilm,"C. albicans biofilm [7]; 8 μg/ml, untreated control 88%",20%
same,viable cells in fungal biofilm,C. albicans biofilm [7]; 64 μg/ml,totally reduced viable cells
same,granularity,C. albicans biofilm [7]; 64 μg/ml,40 AU
same,cell size,C. albicans biofilm [7]; 64 μg/ml,100 AU
same,MBIC50,[8],4 µg/mL
same,growth of co-culture,[9],not affected
same,MIC,S. mutans,2 µg/mL
same,streptococcal biofilm formation,S. mutans biofilm; HU210 2 μg/ml,No streptococcal biofilm was formed
"COc1cccc(OC)c1C(=O)N[C@@H]1C(=O)N2[C@@H]1SC(C)(C)[C@@H]2C(=O)O [METH, methicillin, reference compound]",FIC METH,"S. aureus MRSA 24433; MIC of methicillin in combination with AEA, Table 1",16 µg/mL
same,FIC METH,"S. aureus MRSA 24433; MIC of methicillin in combination with AEA, Table 6B",16
same,FIC METH,"S. aureus MRSA 24433; MIC of methicillin in combination with ARAS, Table 3B",>64
same,MIC METH,S. aureus MRSA 24433; Table 1,>64 µg/mL
same,MIC METH,S. aureus MRSA 24433; Table 3B,> 64 µg/mL
same,MIC METH,S. aureus MRSA 24433; Table 6B,> 64 µg/mL
same,MIC,"S. aureus MRSA 24433; Staphylococcus aureus, MRSA, read-out: MIC METH",> 64 µg/mL
same,FBIC METH,"[10]; MBIC of methicillin in combination with AEA, Table 1",16 µg/mL
same,FBIC METH,"[10]; MBIC of methicillin in combination with AEA, Table 6B",16
same,FBIC METH,"[10]; MBIC of methicillin in combination with ARAS, Table 3B",16
same,MBIC METH,[10]; Table 1,>64 µg/mL
same,MBIC METH,[10]; Table 3B,>64
same,MBIC METH,[10]; Table 6B,>64
same,FIC METH,"S.aureus MRSA 33592; MIC of methicillin in combination with AEA, Table 6A",16
same,FIC METH,"S.aureus MRSA 33592; MIC of methicillin in combination with ARAS, Table 3A",8
same,MIC METH,S.aureus MRSA 33592; Table 3A,32 µg/mL
same,MIC METH,S.aureus MRSA 33592; Table 6A,32 µg/mL
same,FBIC METH,"[2]; MBIC of methicillin in combination with AEA, Table 6A",8
same,FBIC METH,"[2]; MBIC of methicillin in combination with ARAS, Table 3A",8
same,MBIC METH,[2]; Table 3A,32
same,MBIC METH,[2]; Table 6A,32
same,FIC METH,"S.aureus MRSA 43300; MIC of methicillin in combination with AEA, Table 6C",8
same,FIC METH,"S.aureus MRSA 43300; MIC of methicillin in combination with ARAS, Table 3C",2
same,MIC METH,S.aureus MRSA 43300; Table 3C,32 µg/mL
same,MIC METH,S.aureus MRSA 43300; Table 6C,32 µg/mL
same,FBIC METH,"[3]; MBIC of methicillin in combination with AEA, Table 6C",8
same,FBIC METH,"[3]; MBIC of methicillin in combination with ARAS, Table 3C",8
same,MBIC METH,[3]; Table 3C,32
same,MBIC METH,[3]; Table 6C,32
"CCCCCCCC/C=C\CCCCCCCC(=O)N[C@@H](C)C(=O)O [OA, oleoyl alanine]",MBIC50,S. mutans biofilm,16 µg/mL
"CCCCCCCC/C=C\CCCCCCCC(=O)NCCO [OEA, oleoyl ethanolamide]",MBIC50,S. mutans biofilm,64 µg/mL
"CCCCCCCC/C=C\CCCCCCCC(=O)NCC(=O)O [OG, oleoyl glycine]",MBIC50,S. mutans biofilm,32 µg/mL
"CCCCCCCCCCCCCCCC(=O)NCCO [PEA, palmitoyl ethanolamide]",layers/depth of P. aeruginosa biofilm,P. aeruginosa biofilm,reduced layers/depth of biofilm
gentamycin [reference compound],decrease of MIC in combination,S.aureus MRSA 33592; AEA with gentamicin vs agent alone,32 fold
same,FIC GEN,"S.aureus MRSA 33592; MIC of gentamicin in combination with AEA, Table 7",4
same,FIC GEN,"S.aureus MRSA 33592; MIC of gentamycin in combination with ARAS, Table 4",4
same,MIC GEN,"S.aureus MRSA 33592; gentamicin alone, Table 7",128 µg/mL
same,MIC GEN,"S.aureus MRSA 33592; gentamycin alone, Table 4",128 µg/mL
same,FBIC GEN,"[2]; MBIC of gentamicin in combination with AEA, Table 7",8
same,FBIC GEN,"[2]; MBIC of gentamycin in combination with ARAS, Table 4",4
same,MBIC GEN,"[2]; gentamicin alone, Table 7",128
same,MBIC GEN,"[2]; gentamycin alone, Table 4",128
